# From patent US8476408B2, “Unacylated ghrelin and analogs as therapeutic agents for vascular remodeling in diabetic patients and treatment of cardiovascular disease” (Alize Pharma SAS, priority 2008, dated 2013)
# Where no end group is shown, it is not given here.
# Tests used:
# [1] = system: CAC; assay: Expansion (S phase) of CAC recovered from treated mice; assay type: in vivo; conditions: CAC from UAG-challenged mice, IL-3; FIG. 4C
# Protocol: (§1) Flow Cytometry—To analyze CAC cell-cycle progression, cells recovered from diabetic, healthy subjects, NOD/SCID, ob/ob and wt mice, were cultured in EBM-2 supplemented with IL-3 (10 ng/ml), FACS analysis was performed as previously described (Ref. 20). Cell surface molecules were evaluated by flow cytometry as previously described (Ref. 24). Frequency of marker-positive cells is expressed as mean±standard deviation (SD).
# (§2) Isolation and Culture of CAC from C57BU6J, C57BL/6J ob/ob mice and NOD/SCID mice—6 weeks old C57BL/6J (wt) and ob/ob mice, 7 and 17 weeks old NOD/SCID mice were purchased from Charles River Lab (Lecco, Italy). Animals were anesthetized by intraperitoneal injection with Avertin (100 mg/50ml ip). Blood samples were drawn from left ventricular, as described by Hoff (Ref. 27). Peripheral blood MNC were isolated by Ficoll density-gradient centrifugation. Recovered cells were washed twice Isolated cells were resuspended and were cultured on 20 μg/ml fibronectin-coated dishes in EGM-2 BulletKit Medium. In selected experiments, the isolated CAC were cultured in EBM-2 medium supplemented with 10 ng/ml of IL-3.
# [2] = system: CAC; assay: Arterial specification of recovered human CAC (Q-RT-PCR of Ephrin B2, Notch1, Notch4, EphB4); assay type: in vivo; conditions: cells from treated patients cultured with IL-3; FIG. 3D
# Protocol: (§3) RNA isolation and quantitative real-time PCR—CAC from diabetic patients, healthy subjects and mice treated with UAG or saline were cultured in EGM-2 medium. Human arterial and venous cells were used as a positive controls. mRNA quantification was performed by Q-RT-PCR, as previously described (Ref. 24). The relative expression of Ephrin B2, Notch1, Notch4 and EphB4 were calculated by using comparative threshold cycle methods. The human and murine primer sequences used were described (Refs. 25, 26).
# [3] = system: CAC; assay: Expansion (S phase) of CAC recovered from treated subjects, cultured with IL-3; assay type: in vivo, human; conditions: cells from treated diabetic patients cultured with IL-3; FIG. 3C
# Protocol: (§4) Peripheral-blood mononuclear cells (PB-MNC) isolated by Fycoll Histopaque 1077 (Sigma) were resuspended in 20% FBS 199 Medium and plated on fibronectin-coated dishes (Biocoat, Becton Dickinson Labware) as described by Hill et al. (Ref. 19). Human UAG studies were performed on CAC recovered from normal donors and diabetic patients. The purity of sorted cells was assessed by FACS analysis (Ref. 20). For experiments, the isolated CAC were cultured under 5% CO2 at 37° C. for 4 days on 20 μg/ml fibronectin-coated dishes in EGM-2 medium containing 10% FBS, hydrocortisone, human Fibroblast Growth Factor, Vascular Endothelial Growth Factor, Insulin Growth Factor 1, ascorbic acid, human Epidermal Growth Factor, gentamicin and amphotericin-B (Cambrex, Walkersville, Md., USA) alone or in combination with 1 μM UAG and 1.2 mg/ml AGE. In selected experiments, isolated CAC were cultured in EBM-2 medium (Cambrex, Walkersville, Md., USA) supplemented with 10 ng/ml of IL-3. […]
# as §1
# [4] = system: CAC; assay: CAC mobilization assay in diabetic and control mice; assay type: in vivo; conditions: FIG. 4B
# Protocol: Diabetic and control mice—Mice were divided in four groups. The plasma glucose and insulin determination for each group are reported. Sixteen 6 weeks old ob/ob mice (blood glucose, 600±45 mg/dL, insulin, 5.5±0.9 ng/ml); sixteen C56BL6/J wild type mice (blood glucose, 150±18.2 mg/dL, insulin, 1±0.05 ng/ml); ten 7 weeks old NOD/SCID mice (blood glucose, 164±12.9 mg/dL, insulin 1.2±0.12 ng/ml); ten 17 weeks old NOD/SCID mice (blood glucose, 536±36.3 mg/dL, insulin 4.85±0.74 ng/ml). Animal procedures conformed to the Guide for Care and Use of […] (National Institutes of Health publication no. 93-23, revised 1985).
# Isolation and Culture of CAC from C57BU6J, C57BL/6J ob/ob mice and NOD/SCID mice—6 weeks old C57BL/6J (wt) and ob/ob mice, 7 and 17 weeks old NOD/SCID mice were purchased from Charles River Lab (Lecco, Italy). Animals were anesthetized by intraperitoneal injection with Avertin (100 mg/50ml ip). Blood samples were drawn from left ventricular, as described by Hoff (Ref. 27). Peripheral blood MNC were isolated by Ficoll density-gradient centrifugation. […]
# Mobilization assay—Mice were treated for 12 hours with UAG or saline. CAC recovered and purified as above described, were put in culture and counted by three independent investigators. The technical ratio of CAC was calculated by comparing the numbers of CAC/μL of blood drawn from left ventricular.
# [5] = system: cardiomyocytes; conditions: Ref. 8; cited from earlier work
# [6] = biological target: GHSR-1a (Homo sapiens, UniProt Q92847); conditions: cited from earlier work
# [7] = system: CAC; assay: Arterial commitment of CAC recovered from treated mice (Q-RT-PCR); assay type: in vivo; conditions: CAC from UAG-challenged mice cultured with IL-3; FIG. 4D
# Protocol: as §3, §2
# [8] = system: CAC; assay: Matrigel-plug assay of de novo vessel formation by CAC from treated diabetic patients; assay type: in vivo, SCID mice
# Protocol: Matrigel-plug assay—For murine angiogenesis assay, untreated or UAG-treated CAC, obtained from type 2 diabetic patients, were counted and resuspended in DMEM (4×10^6 in 250 μL DMEM). Cells were chilled in ice, labelled with fluorescent dye carboxyfluorescein diacetate succinimidyl ester (CSFE, Molecular Probes), added to 250 μL Matrigel containing of IL-3 (100 ng/ml) at 4° C., and injected sc. in the abdominal paramedian region of 7 week old NOD/SCID mice (5 mice per group). After 15 days, mice were killed and Matrigel plugs were recovered, fixed in 10% buffered formalin and embedded in paraffin for immunohistochemistry.
# Immunohistochemistry and immunofluorescence—For immunohistochemistry, sections from paraffin-embedded blocks of Matrigel plugs were collected onto poly-lysine-coated slides. Endogenous peroxidase activity was blocked with 6% H2O2 for 8 minutes at room temperature. To detect cells labelled with fluorescent dye CSFE, anti-Fluorescein/Oregon Green polyclonal Abs (Molecular Probes) were applied to slides overnight at 4° C. […] The percentage of positive cells was counted in 4 non-sequential sections for each experiment at ×40 magnification. […] The number of MHC II or HLA I positive vessels was determined by counting 10 randomly selected fields in three different samples.
# [9] = system: CAC; assay: CAC cell-cycle progression (S phase, FACS); assay type: cell-based, human; conditions: cultured CAC, still evident after 7 days; FIG. 1A
# Protocol: as §4, §1
# [10] = system: human arteries; conditions: Ref. 35; cited from earlier work
# GHSR-1a, sequence (Q92847 whole entry): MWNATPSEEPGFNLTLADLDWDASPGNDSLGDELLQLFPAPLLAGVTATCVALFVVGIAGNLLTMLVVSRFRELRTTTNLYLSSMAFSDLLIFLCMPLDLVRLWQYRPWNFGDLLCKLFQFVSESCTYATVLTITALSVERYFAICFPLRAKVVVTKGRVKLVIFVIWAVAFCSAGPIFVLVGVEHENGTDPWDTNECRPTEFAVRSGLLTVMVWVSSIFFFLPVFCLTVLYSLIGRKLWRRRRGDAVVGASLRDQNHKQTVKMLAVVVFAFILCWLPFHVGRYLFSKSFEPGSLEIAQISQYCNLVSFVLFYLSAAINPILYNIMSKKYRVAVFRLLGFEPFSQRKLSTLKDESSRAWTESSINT
substance,measurement,setting,value
1-NH2Gly-Ser-Ser-Phe-Leu-Ser-Pro-Glu-His-Gln-Arg-Val-Gln-Gln-Arg-Lys-Glu-Ser-Lys-Lys-Pro-Pro-Ala-Lys-Leu-Gln-Pro-Arg-28 (GSSFLSPEHQRVQQRKESKKPPAKLQPR; ends and bridges not checked; listed as Homo sapiens) [UAG],expansion of recovered CAC,[1],could be expanded
same,"arterial specification (Ephrin B2, Notch1, Notch4 vs EphB4)",[2],able to undergo arterial specification
same,cell expansion of recovered cells (S phase),[3],underwent cell expansion
same,percentage of recovered cells,[4]; diabetic NOD/SCID mice,increase the percentage of recovered cells
same,number of recovered cells relative to untreated wild type mice,[4]; ob/ob mice,fully restores the number of CAC to normal physiological levels
same,experimentally-induced cell death,[5],inhibit experimentally-induced cell death
same,binding to GHSR-1a,[6],fails to bind GHSR-1a
same,arterial commitment of recovered CAC,[7],acquire arterial commitment
same,formation of functional vessels by labelled CAC,"[8]; CAC from UAG-treated diabetic patients, Matrigel plugs with IL-3, 15 days, FIG. 4E",formed functional vessels
same,origin of neo-vessels (human HLA Class I vs mouse MHC II),"[8]; immunofluorescence of Matrigel plugs, FIG. 4F",majority of vessels are lined by human HLA Class I positive cells
same,percentage of cells in S phase,[9],significant increase in the percentage of cells in S phase
same,vasodilator action,[10],vasodilator actions
